{
  "source": "BindingDB's records for doi:10.1021/jm051056c",
  "about": "(Targegen, 2007)",
  "molecular_target": "Phosphatidylinositol 4,5-bisphosphate 3-kinase catalytic subunit gamma isoform (Homo sapiens, UniProt P48736)",
  "sequence (P48736 whole entry, canonical isoform)": "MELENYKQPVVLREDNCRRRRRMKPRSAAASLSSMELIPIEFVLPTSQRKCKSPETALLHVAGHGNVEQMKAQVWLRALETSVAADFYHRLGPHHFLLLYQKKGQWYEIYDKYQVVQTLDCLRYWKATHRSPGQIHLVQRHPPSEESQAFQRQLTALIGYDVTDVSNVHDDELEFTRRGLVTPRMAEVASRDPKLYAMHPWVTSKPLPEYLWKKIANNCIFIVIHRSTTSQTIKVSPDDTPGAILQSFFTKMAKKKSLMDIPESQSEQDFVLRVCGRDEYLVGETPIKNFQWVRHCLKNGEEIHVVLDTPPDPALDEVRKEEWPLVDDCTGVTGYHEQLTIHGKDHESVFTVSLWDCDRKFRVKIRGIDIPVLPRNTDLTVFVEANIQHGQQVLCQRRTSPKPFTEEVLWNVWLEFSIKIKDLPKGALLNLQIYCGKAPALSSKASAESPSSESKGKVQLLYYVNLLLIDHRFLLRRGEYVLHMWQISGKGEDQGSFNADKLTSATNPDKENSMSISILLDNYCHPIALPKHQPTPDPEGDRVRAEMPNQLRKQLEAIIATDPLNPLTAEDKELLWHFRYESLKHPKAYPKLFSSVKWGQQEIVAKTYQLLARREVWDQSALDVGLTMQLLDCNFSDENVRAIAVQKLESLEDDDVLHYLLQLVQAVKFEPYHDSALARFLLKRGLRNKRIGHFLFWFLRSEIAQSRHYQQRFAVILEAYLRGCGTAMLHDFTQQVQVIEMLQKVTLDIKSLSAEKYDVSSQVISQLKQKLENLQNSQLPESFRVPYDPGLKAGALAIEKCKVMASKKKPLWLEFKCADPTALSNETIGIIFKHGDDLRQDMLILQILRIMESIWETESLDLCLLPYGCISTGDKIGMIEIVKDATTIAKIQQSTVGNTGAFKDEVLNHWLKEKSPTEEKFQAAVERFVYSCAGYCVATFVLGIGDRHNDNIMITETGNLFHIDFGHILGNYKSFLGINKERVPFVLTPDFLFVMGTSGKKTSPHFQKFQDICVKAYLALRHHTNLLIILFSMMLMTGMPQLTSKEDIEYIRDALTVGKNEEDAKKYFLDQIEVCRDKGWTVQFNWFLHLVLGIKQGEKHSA",
  "assay": "Determination of PI3K Activity",
  "conditions": "pH 7.4; 22 °C",
  "data": [
    {"smiles": "COc1cccc(-c2nc3nc(N)nc(N)c3nc2-c2cccc(OC)c2)c1", "note": "[6,7-bis(3-methoxyphenyl)pteridine-2,4-diamine]", "values": [
      {"measurement": "IC50", "value": 12.6, "unit": "µM"}
    ]}
  ]
}
